Laboratory results taken from publication PMC9571063 (Molecules, 2022).
Read-outs that look alike come from different tables or passages of the source.

Experiments:
[1] = target: T1, ABL1(E255K)-phosphorylated (Homo sapiens, UniProt P00519, E255K); experiment: KINOMEscan; assay type: binding; conditions: read-out: Percent Control
T1 construct: purchased Eurofins DiscoverX KINOMEscan (scanMAX 468)

BTK = target: T2, BTK (Homo sapiens, UniProt Q06187); experiment: KINOMEscan; assay type: binding; conditions: read-out: Percent Control
T2 construct: purchased Eurofins DiscoverX KINOMEscan (scanMAX 468)

CDK3 = target: T3, CDK3 (Homo sapiens, UniProt Q00526); experiment: KINOMEscan; assay type: binding; conditions: read-out: Percent Control
T3 construct: purchased Eurofins DiscoverX KINOMEscan (scanMAX 468)

CDKL2 = target: T4, CDKL2 (Homo sapiens, UniProt Q92772); experiment: KINOMEscan; assay type: binding; conditions: read-out: Percent Control
T4 construct: purchased Eurofins DiscoverX KINOMEscan (scanMAX 468)

CIT = target: T5, CIT (Homo sapiens, UniProt O14578); experiment: KINOMEscan; assay type: binding; conditions: read-out: Percent Control
T5 construct: purchased Eurofins DiscoverX KINOMEscan (scanMAX 468)

DLK = target: T6, DLK (Homo sapiens, UniProt Q12852); experiment: KINOMEscan; assay type: binding; conditions: read-out: Percent Control
T6 construct: purchased Eurofins DiscoverX KINOMEscan (scanMAX 468)

EPHA8 = target: T7, EPHA8 (Homo sapiens, UniProt P29322); experiment: KINOMEscan; assay type: binding; conditions: read-out: Percent Control
T7 construct: purchased Eurofins DiscoverX KINOMEscan (scanMAX 468)

EPHB3 = target: T8, EPHB3 (Homo sapiens, UniProt P54753); experiment: KINOMEscan; assay type: binding; conditions: read-out: Percent Control
T8 construct: purchased Eurofins DiscoverX KINOMEscan (scanMAX 468)

EPHB6 = target: T9, EPHB6 (Homo sapiens, UniProt O15197); experiment: KINOMEscan; assay type: binding; conditions: read-out: Percent Control
T9 construct: purchased Eurofins DiscoverX KINOMEscan (scanMAX 468)

ERK5 = target: T10, ERK5 (Homo sapiens, UniProt Q13164); experiment: KINOMEscan; assay type: binding; conditions: read-out: Percent Control
T10 construct: purchased Eurofins DiscoverX KINOMEscan (scanMAX 468)

GRK3 = target: T11, GRK3 (Homo sapiens, UniProt P35626); experiment: KINOMEscan; assay type: binding; conditions: read-out: Percent Control
T11 construct: purchased Eurofins DiscoverX KINOMEscan (scanMAX 468)

IKK-epsilon = target: T12, IKK-epsilon (Homo sapiens, UniProt Q14164); experiment: KINOMEscan; assay type: binding; conditions: read-out: Percent Control
T12 construct: purchased Eurofins DiscoverX KINOMEscan (scanMAX 468)

INSR = target: T13, INSR (Homo sapiens, UniProt P06213); experiment: KINOMEscan; assay type: binding; conditions: read-out: Percent Control
T13 construct: purchased Eurofins DiscoverX KINOMEscan (scanMAX 468)

INSRR = target: T14, INSRR (Homo sapiens, UniProt P14616); experiment: KINOMEscan; assay type: binding; conditions: read-out: Percent Control
T14 construct: purchased Eurofins DiscoverX KINOMEscan (scanMAX 468)

[2] = target: T15, JAK1(JH2domain-pseudokinase) (Homo sapiens, UniProt P23458); experiment: KINOMEscan; assay type: binding; conditions: read-out: Percent Control
T15 construct: JAK1(JH2domain-pseudokinase); purchased Eurofins DiscoverX KINOMEscan (scanMAX 468)

MAP3K3 = target: T16, MAP3K3 (Homo sapiens, UniProt Q99759); experiment: KINOMEscan; assay type: binding; conditions: read-out: Percent Control
T16 construct: purchased Eurofins DiscoverX KINOMEscan (scanMAX 468)

MAP4K3 = target: T17, MAP4K3 (Homo sapiens, UniProt Q8IVH8); experiment: KINOMEscan; assay type: binding; conditions: read-out: Percent Control
T17 construct: purchased Eurofins DiscoverX KINOMEscan (scanMAX 468)

MEK2 = target: T18, MEK2 (Homo sapiens, UniProt P36507); experiment: KINOMEscan; assay type: binding; conditions: read-out: Percent Control
T18 construct: purchased Eurofins DiscoverX KINOMEscan (scanMAX 468)

MEK5 = target: T19, MEK5 (Homo sapiens, UniProt Q13163); experiment: KINOMEscan; assay type: binding; conditions: read-out: Percent Control
T19 construct: purchased Eurofins DiscoverX KINOMEscan (scanMAX 468)

MKNK2 = target: T20, MKNK2 (Homo sapiens, UniProt Q9HBH9); experiment: KINOMEscan; assay type: binding; conditions: read-out: Percent Control
T20 construct: purchased Eurofins DiscoverX KINOMEscan (scanMAX 468)

MRCKB = target: T21, MRCKB (Homo sapiens, UniProt Q9Y5S2); experiment: KINOMEscan; assay type: binding; conditions: read-out: Percent Control
T21 construct: purchased Eurofins DiscoverX KINOMEscan (scanMAX 468)

MST4 = target: T22, MST4 (Homo sapiens, UniProt Q9P289); experiment: KINOMEscan; assay type: binding; conditions: read-out: Percent Control
T22 construct: purchased Eurofins DiscoverX KINOMEscan (scanMAX 468)

MYO3A = target: T23, MYO3A (Homo sapiens, UniProt Q8NEV4); experiment: KINOMEscan; assay type: binding; conditions: read-out: Percent Control
T23 construct: purchased Eurofins DiscoverX KINOMEscan (scanMAX 468)

NEK5 = target: T24, NEK5 (Homo sapiens, UniProt Q6P3R8); experiment: KINOMEscan; assay type: binding; conditions: read-out: Percent Control
T24 construct: purchased Eurofins DiscoverX KINOMEscan (scanMAX 468)

p38-gamma = target: T25, p38-gamma (Homo sapiens, UniProt P53778); experiment: KINOMEscan; assay type: binding; conditions: read-out: Percent Control
T25 construct: purchased Eurofins DiscoverX KINOMEscan (scanMAX 468)

PAK2 = target: T26, PAK2 (Homo sapiens, UniProt Q13177); experiment: KINOMEscan; assay type: binding; conditions: read-out: Percent Control
T26 construct: purchased Eurofins DiscoverX KINOMEscan (scanMAX 468)

PIK3C2G = target: T27, PIK3C2G (Homo sapiens, UniProt O75747); experiment: KINOMEscan; assay type: binding; conditions: read-out: Percent Control
T27 construct: purchased Eurofins DiscoverX KINOMEscan (scanMAX 468)

PIK3CA(H1047L) = target: T28, PIK3CA(H1047L) (Homo sapiens, UniProt P42336, H1047L); experiment: KINOMEscan; assay type: binding; conditions: read-out: Percent Control
T28 construct: purchased Eurofins DiscoverX KINOMEscan (scanMAX 468)

PKAC-alpha = target: T29, PKAC-alpha (Homo sapiens, UniProt P17612); experiment: KINOMEscan; assay type: binding; conditions: read-out: Percent Control
T29 construct: purchased Eurofins DiscoverX KINOMEscan (scanMAX 468)

PKMYT1 = target: T30, PKMYT1 (Homo sapiens, UniProt Q99640); experiment: KINOMEscan; assay type: binding; conditions: read-out: Percent Control
T30 construct: purchased Eurofins DiscoverX KINOMEscan (scanMAX 468)

PKNB(M.tuberculosis) = target: T31, PKNB(M.tuberculosis) (Mycobacterium tuberculosis, UniProt P9WI81); experiment: KINOMEscan; assay type: binding; conditions: read-out: Percent Control
T31 construct: purchased Eurofins DiscoverX KINOMEscan (scanMAX 468)

PRKCQ = target: T32, PRKCQ (Homo sapiens, UniProt Q04759); experiment: KINOMEscan; assay type: binding; conditions: read-out: Percent Control
T32 construct: purchased Eurofins DiscoverX KINOMEscan (scanMAX 468)

PYK2 = target: T33, PYK2 (Homo sapiens, UniProt Q14289); experiment: KINOMEscan; assay type: binding; conditions: read-out: Percent Control
T33 construct: purchased Eurofins DiscoverX KINOMEscan (scanMAX 468)

ROCK2 = target: T34, ROCK2 (Homo sapiens, UniProt O75116); experiment: KINOMEscan; assay type: binding; conditions: read-out: Percent Control
T34 construct: purchased Eurofins DiscoverX KINOMEscan (scanMAX 468)

SLK = target: T35, SLK (Homo sapiens, UniProt Q9H2G2); experiment: KINOMEscan; assay type: binding; conditions: read-out: Percent Control
T35 construct: purchased Eurofins DiscoverX KINOMEscan (scanMAX 468)

TLK2 = target: T36, TLK2 (Homo sapiens, UniProt Q86UE8); experiment: KINOMEscan; assay type: binding; conditions: read-out: Percent Control
T36 construct: purchased Eurofins DiscoverX KINOMEscan (scanMAX 468)

TRKC = target: T37, TRKC (Homo sapiens, UniProt Q16288); experiment: KINOMEscan; assay type: binding; conditions: read-out: Percent Control
T37 construct: purchased Eurofins DiscoverX KINOMEscan (scanMAX 468)

WNK4 = target: T38, WNK4 (Homo sapiens, UniProt Q96J92); experiment: KINOMEscan; assay type: binding; conditions: read-out: Percent Control
T38 construct: purchased Eurofins (KINOMEscan, DiscoverX)

YANK3 = target: T39, YANK3 (Homo sapiens, UniProt Q86UX6); experiment: KINOMEscan; assay type: binding; conditions: read-out: Percent Control
T39 construct: purchased Eurofins (KINOMEscan, DiscoverX)

Hs_PIM1 = target: T40, Hs_PIM1 (Homo sapiens, UniProt P11309); set-up: method as in ref 13 (a number printed in a supplementary file, which may have a reference list of its own: not looked up in the article's list); conditions: DB18, cited from earlier work
T40 construct: host or cells: Sf9 insect cells (baculovirus)

HCT116 = test system: HCT116; set-up: method as in ref 14 (a number printed in a supplementary file, which may have a reference list of its own: not looked up in the article's list); conditions: DB18[a], footnote not given; read-out: Cytotoxic studies IC50 HCT116; cited from earlier work

T40 sequence (P11309 whole entry): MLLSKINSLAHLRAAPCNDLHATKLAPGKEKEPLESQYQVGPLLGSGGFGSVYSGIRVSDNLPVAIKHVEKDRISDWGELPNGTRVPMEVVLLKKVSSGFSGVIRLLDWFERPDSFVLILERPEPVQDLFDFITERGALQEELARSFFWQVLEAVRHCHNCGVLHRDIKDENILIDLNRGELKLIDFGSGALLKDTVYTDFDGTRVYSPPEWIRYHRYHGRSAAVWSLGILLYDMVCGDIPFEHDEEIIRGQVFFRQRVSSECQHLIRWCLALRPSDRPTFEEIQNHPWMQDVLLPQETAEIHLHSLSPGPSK
T6 sequence (Q12852 whole entry): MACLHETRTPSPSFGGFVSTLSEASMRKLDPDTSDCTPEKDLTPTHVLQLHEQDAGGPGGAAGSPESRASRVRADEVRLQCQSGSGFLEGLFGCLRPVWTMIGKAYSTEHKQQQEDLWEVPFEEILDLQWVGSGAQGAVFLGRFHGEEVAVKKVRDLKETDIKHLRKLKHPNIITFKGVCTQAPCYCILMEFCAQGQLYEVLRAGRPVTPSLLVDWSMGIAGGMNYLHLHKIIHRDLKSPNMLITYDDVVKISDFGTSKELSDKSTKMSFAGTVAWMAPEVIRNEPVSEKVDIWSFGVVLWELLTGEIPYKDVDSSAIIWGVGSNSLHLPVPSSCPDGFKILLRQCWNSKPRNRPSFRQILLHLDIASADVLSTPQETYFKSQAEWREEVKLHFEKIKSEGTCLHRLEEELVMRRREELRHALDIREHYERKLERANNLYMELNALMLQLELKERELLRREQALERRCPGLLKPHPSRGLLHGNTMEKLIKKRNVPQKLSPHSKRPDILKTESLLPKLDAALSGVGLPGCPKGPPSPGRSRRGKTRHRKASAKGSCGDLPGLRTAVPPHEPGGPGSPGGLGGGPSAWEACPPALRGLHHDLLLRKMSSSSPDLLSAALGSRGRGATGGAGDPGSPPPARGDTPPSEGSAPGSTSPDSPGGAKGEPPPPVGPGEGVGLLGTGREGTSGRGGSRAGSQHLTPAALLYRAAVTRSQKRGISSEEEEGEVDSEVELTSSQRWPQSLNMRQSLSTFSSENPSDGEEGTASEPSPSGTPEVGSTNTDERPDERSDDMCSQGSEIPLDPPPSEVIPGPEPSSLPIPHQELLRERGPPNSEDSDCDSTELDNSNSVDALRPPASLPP
T30 sequence (Q99640 whole entry): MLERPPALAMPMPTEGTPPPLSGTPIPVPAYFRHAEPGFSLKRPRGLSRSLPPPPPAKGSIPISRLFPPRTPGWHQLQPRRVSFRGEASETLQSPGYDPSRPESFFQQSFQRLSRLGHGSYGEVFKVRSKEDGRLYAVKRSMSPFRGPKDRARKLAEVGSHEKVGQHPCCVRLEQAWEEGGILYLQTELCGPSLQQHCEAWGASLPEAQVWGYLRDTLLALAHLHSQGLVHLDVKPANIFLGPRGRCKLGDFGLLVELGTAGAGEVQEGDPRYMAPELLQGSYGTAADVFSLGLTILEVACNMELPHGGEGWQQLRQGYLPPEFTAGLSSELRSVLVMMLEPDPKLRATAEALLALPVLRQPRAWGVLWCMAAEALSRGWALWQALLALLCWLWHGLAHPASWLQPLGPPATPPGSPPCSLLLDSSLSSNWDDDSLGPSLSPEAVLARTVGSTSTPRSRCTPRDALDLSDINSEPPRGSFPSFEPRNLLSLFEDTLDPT
T9 sequence (O15197 32-1021): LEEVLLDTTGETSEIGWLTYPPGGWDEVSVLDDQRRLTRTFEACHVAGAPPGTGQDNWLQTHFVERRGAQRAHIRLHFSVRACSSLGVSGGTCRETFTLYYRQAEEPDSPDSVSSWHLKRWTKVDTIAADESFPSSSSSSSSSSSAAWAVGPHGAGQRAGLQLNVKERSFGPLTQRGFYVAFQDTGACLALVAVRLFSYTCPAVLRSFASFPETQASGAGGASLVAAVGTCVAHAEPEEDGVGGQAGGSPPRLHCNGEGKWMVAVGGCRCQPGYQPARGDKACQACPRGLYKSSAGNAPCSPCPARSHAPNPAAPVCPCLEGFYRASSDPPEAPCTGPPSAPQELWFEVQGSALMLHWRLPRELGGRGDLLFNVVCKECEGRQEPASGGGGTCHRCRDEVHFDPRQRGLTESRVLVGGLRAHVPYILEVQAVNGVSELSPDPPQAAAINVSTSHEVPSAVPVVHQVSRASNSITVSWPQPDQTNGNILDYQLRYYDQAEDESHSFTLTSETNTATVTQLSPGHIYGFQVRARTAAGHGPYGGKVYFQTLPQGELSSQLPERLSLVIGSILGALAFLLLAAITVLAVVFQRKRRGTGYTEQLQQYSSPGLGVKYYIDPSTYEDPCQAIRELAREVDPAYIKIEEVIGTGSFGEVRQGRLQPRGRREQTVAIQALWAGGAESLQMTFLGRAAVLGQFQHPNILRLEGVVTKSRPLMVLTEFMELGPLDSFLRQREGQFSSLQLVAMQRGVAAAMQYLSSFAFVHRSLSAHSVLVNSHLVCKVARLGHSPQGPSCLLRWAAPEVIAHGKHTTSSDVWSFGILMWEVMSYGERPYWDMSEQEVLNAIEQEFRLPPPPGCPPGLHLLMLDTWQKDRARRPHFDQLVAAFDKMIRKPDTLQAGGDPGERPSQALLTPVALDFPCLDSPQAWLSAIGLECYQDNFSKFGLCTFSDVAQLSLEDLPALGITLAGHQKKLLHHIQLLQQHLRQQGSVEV
T10 sequence (Q13164 whole entry): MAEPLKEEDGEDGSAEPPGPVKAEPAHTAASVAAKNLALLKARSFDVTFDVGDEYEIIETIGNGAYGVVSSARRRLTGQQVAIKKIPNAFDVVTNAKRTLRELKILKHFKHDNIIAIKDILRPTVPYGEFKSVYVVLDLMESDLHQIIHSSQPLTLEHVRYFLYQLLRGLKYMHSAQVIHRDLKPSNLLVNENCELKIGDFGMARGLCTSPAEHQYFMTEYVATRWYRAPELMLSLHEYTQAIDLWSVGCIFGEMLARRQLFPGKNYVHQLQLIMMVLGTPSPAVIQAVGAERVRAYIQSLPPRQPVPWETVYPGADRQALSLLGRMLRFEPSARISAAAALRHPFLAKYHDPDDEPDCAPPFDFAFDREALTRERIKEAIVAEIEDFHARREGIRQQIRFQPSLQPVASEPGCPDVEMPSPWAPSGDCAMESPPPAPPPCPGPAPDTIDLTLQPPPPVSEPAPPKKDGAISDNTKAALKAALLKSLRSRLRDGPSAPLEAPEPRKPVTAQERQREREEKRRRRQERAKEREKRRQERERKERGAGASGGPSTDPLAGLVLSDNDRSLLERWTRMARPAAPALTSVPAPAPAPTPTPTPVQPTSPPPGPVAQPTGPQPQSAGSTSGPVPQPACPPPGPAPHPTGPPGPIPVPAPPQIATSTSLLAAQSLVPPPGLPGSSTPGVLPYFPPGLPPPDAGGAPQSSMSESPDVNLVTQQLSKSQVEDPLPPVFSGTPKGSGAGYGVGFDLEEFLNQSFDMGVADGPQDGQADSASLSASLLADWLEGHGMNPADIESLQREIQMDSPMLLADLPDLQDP
T33 sequence (Q14289 whole entry): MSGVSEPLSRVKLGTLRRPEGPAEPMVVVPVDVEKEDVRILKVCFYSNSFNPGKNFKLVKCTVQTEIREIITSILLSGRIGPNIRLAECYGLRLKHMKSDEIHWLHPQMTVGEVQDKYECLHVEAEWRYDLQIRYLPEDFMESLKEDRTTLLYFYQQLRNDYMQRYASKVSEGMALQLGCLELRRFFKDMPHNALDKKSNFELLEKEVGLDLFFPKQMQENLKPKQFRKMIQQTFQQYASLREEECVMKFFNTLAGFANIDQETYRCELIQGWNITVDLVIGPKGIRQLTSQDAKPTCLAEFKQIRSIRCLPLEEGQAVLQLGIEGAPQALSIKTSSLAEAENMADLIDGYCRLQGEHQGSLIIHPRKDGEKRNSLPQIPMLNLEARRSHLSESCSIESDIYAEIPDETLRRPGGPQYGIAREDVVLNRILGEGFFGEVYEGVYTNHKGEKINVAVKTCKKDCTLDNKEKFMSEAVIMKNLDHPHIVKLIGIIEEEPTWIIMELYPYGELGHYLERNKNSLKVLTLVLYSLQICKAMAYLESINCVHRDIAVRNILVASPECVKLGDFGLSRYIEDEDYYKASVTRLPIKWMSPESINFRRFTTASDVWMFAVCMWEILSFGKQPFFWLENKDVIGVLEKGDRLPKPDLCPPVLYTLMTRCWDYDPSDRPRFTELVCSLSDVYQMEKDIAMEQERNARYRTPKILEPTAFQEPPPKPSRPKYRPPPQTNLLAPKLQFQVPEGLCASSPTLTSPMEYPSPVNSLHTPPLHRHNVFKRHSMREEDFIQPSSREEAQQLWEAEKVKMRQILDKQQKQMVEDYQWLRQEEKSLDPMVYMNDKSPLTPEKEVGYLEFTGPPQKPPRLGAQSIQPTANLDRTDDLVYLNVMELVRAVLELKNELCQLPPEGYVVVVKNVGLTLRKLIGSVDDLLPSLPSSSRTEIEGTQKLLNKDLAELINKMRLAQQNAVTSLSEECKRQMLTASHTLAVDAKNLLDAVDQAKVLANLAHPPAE
T26 sequence (Q13177 whole entry): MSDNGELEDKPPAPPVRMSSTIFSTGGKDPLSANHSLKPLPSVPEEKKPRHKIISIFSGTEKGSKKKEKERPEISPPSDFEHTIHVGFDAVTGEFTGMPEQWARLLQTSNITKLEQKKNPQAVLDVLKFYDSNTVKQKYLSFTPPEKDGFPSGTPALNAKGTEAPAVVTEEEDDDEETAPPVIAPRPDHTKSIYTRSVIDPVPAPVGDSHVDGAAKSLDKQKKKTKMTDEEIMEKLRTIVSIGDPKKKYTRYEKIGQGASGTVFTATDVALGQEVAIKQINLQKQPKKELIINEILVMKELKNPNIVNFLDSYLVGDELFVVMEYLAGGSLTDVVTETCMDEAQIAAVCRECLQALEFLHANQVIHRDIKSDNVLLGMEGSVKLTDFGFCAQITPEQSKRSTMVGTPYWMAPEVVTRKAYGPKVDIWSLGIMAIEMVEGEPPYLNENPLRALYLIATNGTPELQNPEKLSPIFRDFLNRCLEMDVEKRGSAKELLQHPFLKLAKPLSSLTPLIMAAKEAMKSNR

Cc1ccc(-n2cc(COc3cccc4cnc(Nc5cccc(Cl)c5)nc34)nn2)c([N+](=O)[O-])c1 [DB18]
remaining binding at 1 µM [1]: 97%
remaining binding at 1 µM (BTK): 100%
remaining binding at 1 µM (CDK3): 100%
remaining binding at 1 µM (CDKL2): 97%
remaining binding at 1 µM (CIT): 100%
remaining binding at 1 µM (DLK): 100%
remaining binding at 1 µM (EPHA8): 100%
remaining binding at 1 µM (EPHB3): 100%
remaining binding at 1 µM (EPHB6): 95%
remaining binding at 1 µM (ERK5): 100%
remaining binding at 1 µM (GRK3): 89%
remaining binding at 1 µM (IKK-epsilon): 96%
remaining binding at 1 µM (INSR): 93%
remaining binding at 1 µM (INSRR): 100%
remaining binding at 1 µM [2]: 100%
remaining binding at 1 µM (MAP3K3): 99%
remaining binding at 1 µM (MAP4K3): 95%
remaining binding at 1 µM (MEK2): 89%
remaining binding at 1 µM (MEK5): 95%
remaining binding at 1 µM (MKNK2): 100%
remaining binding at 1 µM (MRCKB): 94%
remaining binding at 1 µM (MST4): 97%
remaining binding at 1 µM (MYO3A): 100%
remaining binding at 1 µM (NEK5): 100%
remaining binding at 1 µM (p38-gamma): 100%
remaining binding at 1 µM (PAK2): 100%
remaining binding at 1 µM (PIK3C2G): 97%
remaining binding at 1 µM (PIK3CA(H1047L)): 100%
remaining binding at 1 µM (PKAC-alpha): 100%
remaining binding at 1 µM (PKMYT1): 62%
remaining binding at 1 µM (PKNB(M.tuberculosis)): 97%
remaining binding at 1 µM (PRKCQ): 100%
remaining binding at 1 µM (PYK2): 100%
remaining binding at 1 µM (ROCK2): 100%
remaining binding at 1 µM (SLK): 100%
remaining binding at 1 µM (TLK2): 100%
remaining binding at 1 µM (TRKC): 59%
remaining binding at 1 µM (WNK4): 100%
remaining binding at 1 µM (YANK3): 100%
% of residual activity Hs_PIM1 (Hs_PIM1; 1 µM): 97%
% of residual activity Hs_PIM1 (Hs_PIM1; 10 µM): 81%
IC50 (HCT116): > 25 µM
